Reference: PMC6694038, “Pharmacogenomic–pharmacokinetic study of selective estrogen-receptor modulators with intra-patient dose escalation in breast cancer” (Breast Cancer (Tokyo, Japan), 2019)

Columns and labels:
[1] = Plasma concentrations of TAM, TOR and their metabolites by LC–MS/MS (screening study)
[2] = weighting of plasma concentration; cited from earlier work
[3] = patients homozygous for CYP2D6 PM genotype on double dose (40 mg) of TAM; cited from earlier work
[4] = 14 poor TAM metabolizers enrolled in the dose-escalation study
[5] = patients on TAM 20 mg a day, N=182

With `CC/C(=C(\c1ccc(O)cc1)c1ccc(OCCNC)cc1)c1ccccc1` [Endoxifen, endoxifen] the “Endoxifen on TAM 20 mg, max” value [1, 4] was 12.6 ng/mL, the “Endoxifen on TAM 20 mg, mean” value [1, 4] was 9.7 ng/mL and the “Endoxifen on TAM 20 mg, median” value [1, 4] was 10.4 ng/mL. For the same compound, the “Endoxifen on TAM 20 mg, min” value [1, 4] was 1.8 ng/mL, the “Patients with endoxifen levels lower than 15 ng/mL” value ([1]; among the 182 patients on TAM) was 50 and the “Patients with endoxifen levels < 7.5 ng/mL” value ([1]; of the 273 participating patients) was 11. The “Plasma concentration, max” value [1, 5] was 64.5 ng/mL, the “Plasma concentration, mean” value [1, 5] was 23.5 ng/mL and the “Plasma concentration, median” value [1, 5] was 22.8 ng/mL. For the same compound, the “Plasma concentration, min” value [1, 5] was 1.8 ng/mL, the “Plasma concentration, variability (range)” value ([1]; patients taking TAM 20 mg a day) was 1.8 to 64.5 ng/mL and the “In vitro activity factor in the total activity of TAM (TAM = 1.0)” value [2] was 46.3. The “Endoxifen concentration relative to EMs” value [3] was “less than one-half of the endoxifen concentrations for EMs”.
